Common to all, as to format: functional
One experiment deals with Aspergillus niger. The experiment can be described thus: Antifungal activity against Aspergillus niger MTCC 282 by broth dilution method. A general note: Broth dilution looks for growth in wells or tubes with falling amounts of substance.
The subject of another experiment is Candida albicans. The experiment can be described thus: Antifungal activity against Candida albicans MTCC 227 by broth dilution method.
The next experiment has as its system Aspergillus clavatus. In words: Antifungal activity against Aspergillus clavatus MTCC 1323 by broth dilution method.

Values after ≈ are worked out from the molar mass of the structure shown.

For orientation: MIC means the smallest concentration in the dilution series that meets the test's criterion for growth inhibition. For the molecule `COc1ccc(Nc2nc3c(sc(=S)n3-c3ccc(OC)cc3)c(=O)n2-c2ccc(OC)cc2)cc1`, the MIC with Aspergillus niger amounted to 0.5 µg/mL (≈ 0.964 µM); against Candida albicans, 4 µg/mL (≈ 7.71 µM); in the experiment with Aspergillus clavatus, 4 µg/mL (≈ 7.71 µM).

Consider `COc1ccc(Nc2nc3c(sc(=S)n3-c3ccc(F)c(Cl)c3)c(=O)n2-c2ccc(OC)cc2)cc1`, for which the minimal inhibitory concentration (MIC) in the experiment with Aspergillus niger is 4 µg/mL (≈ 7.39 µM); in the experiment on Candida albicans, 0.4 µg/mL (≈ 0.739 µM); with Aspergillus clavatus, 0.2 µg/mL (≈ 0.37 µM).

Turning to `COc1ccc(Nc2nc3c(sc(=S)n3-c3ccccc3)c(=O)n2-c2ccc(OC)cc2)cc1`, the minimal inhibitory concentration (MIC) against Aspergillus niger worked out at 0.8 µg/mL (≈ 1.64 µM); in the experiment with Candida albicans, 0.5 µg/mL (≈ 1.02 µM); in the experiment on Aspergillus clavatus, 0.2 µg/mL (≈ 0.409 µM).

In the case of `O=c1c2sc(=S)n(-c3ccc(F)c(Cl)c3)c2nc(Nc2ccc(Br)cc2)n1-c1ccc(Br)cc1`, the MIC in the experiment on Aspergillus niger, in the experiment with Candida albicans and in the experiment on Aspergillus clavatus was 4 µg/mL (≈ 6.26 µM) in each case.

Turning to `COc1ccc(Nc2nc3c(sc(=S)n3-c3ccccc3OC)c(=O)n2-c2ccc(OC)cc2)cc1`, the minimal inhibitory concentration (MIC) in the experiment with Aspergillus niger is 4 µg/mL (≈ 7.71 µM); against Candida albicans it was 16 µg/mL (≈ 30.9 µM); against Aspergillus clavatus it was 0.8 µg/mL (≈ 1.54 µM).

In the case of `OC(Cn1cncn1)(Cn1cncn1)c1ccc(F)cc1F` [FLUCONAZOLE], the figures for the minimum inhibitory concentration (MIC) against Aspergillus niger, against Candida albicans and in the experiment with Aspergillus clavatus were 16 µg/mL (≈ 52.2 µM), 0.5 µg/mL (≈ 1.63 µM) and 16 µg/mL (≈ 52.2 µM), respectively.

On to `COc1ccc(-n2c(=S)sc3c(=O)n(-c4ccc(Br)cc4)c(Nc4ccc(Br)cc4)nc32)cc1`, for which the results for the minimal inhibitory concentration (MIC) with Aspergillus niger, in the experiment with Candida albicans and in the experiment on Aspergillus clavatus were 4 µg/mL (≈ 6.49 µM), 0.8 µg/mL (≈ 1.3 µM) and 0.2 µg/mL (≈ 0.324 µM), respectively.

`CCn1c(=S)sc2c(=O)n(-c3ccc(OC)cc3)c(Nc3ccc(OC)cc3)nc21`: the MIC with Aspergillus niger amounted to 0.8 µg/mL (≈ 1.82 µM); in the experiment on Candida albicans, 2 µg/mL (≈ 4.54 µM); with Aspergillus clavatus, 16 µg/mL (≈ 36.3 µM).

In the case of `O=c1c2sc(=S)n(-c3ccc(Cl)c(Cl)c3)c2nc(Nc2ccc(Br)cc2)n1-c1ccc(Br)cc1`, the results for the MIC in the experiment on Aspergillus niger, against Candida albicans and in the experiment with Aspergillus clavatus were 4 µg/mL (≈ 6.1 µM), 0.8 µg/mL (≈ 1.22 µM) and 16 µg/mL (≈ 24.4 µM), respectively.

For the molecule `COc1ccc(Nc2nc3c(sc(=S)n3-c3ccc(Br)cc3)c(=O)n2-c2ccc(OC)cc2)cc1`, the values for the minimal inhibitory concentration (MIC) against Aspergillus niger, in the experiment on Candida albicans and against Aspergillus clavatus were 0.4 µg/mL (≈ 0.705 µM), 4 µg/mL (≈ 7.05 µM) and 12.8 µg/mL (≈ 22.6 µM), respectively.

For `COc1ccc(-n2c(=S)sc3c(=O)n(-c4ccccc4OC)c(Nc4ccccc4OC)nc32)cc1`, the minimum inhibitory concentration (MIC) in the experiment with Aspergillus niger is 0.4 µg/mL (≈ 0.771 µM); in the experiment with Candida albicans it was 12.8 µg/mL (≈ 24.7 µM); in the experiment with Aspergillus clavatus, 25.6 µg/mL (≈ 49.4 µM).

Consider NYSTATIN, for which the values for the MIC in the experiment on Aspergillus niger, in the experiment with Candida albicans and against Aspergillus clavatus were 7 µg/mL, 8 µg/mL and 7 µg/mL, respectively.

As for `Cc1cccc(C)c1Nc1nc2c(sc(=S)n2-c2ccccc2)c(=O)n1-c1c(C)cccc1C`, the minimal inhibitory concentration (MIC) was 25.6 µg/mL (≈ 52.8 µM) with Aspergillus niger, 4 µg/mL (≈ 8.25 µM) against Candida albicans and 4 µg/mL (≈ 8.25 µM) in the experiment on Aspergillus clavatus.

With `COc1ccccc1Nc1nc2c(sc(=S)n2-c2ccccc2)c(=O)n1-c1ccccc1OC`, the minimum inhibitory concentration (MIC) in the experiment on Aspergillus niger is 12.8 µg/mL (≈ 26.2 µM); against Candida albicans, 4 µg/mL (≈ 8.19 µM); with Aspergillus clavatus, 12.8 µg/mL (≈ 26.2 µM).

With `COc1ccccc1-n1c(=S)sc2c(=O)n(-c3c(C)cccc3C)c(Nc3c(C)cccc3C)nc21`, the minimum inhibitory concentration (MIC) against Aspergillus niger, against Candida albicans and against Aspergillus clavatus was 4 µg/mL (≈ 7.77 µM) in each case.

As for `COc1ccc(-n2c(=S)sc3c(=O)n(-c4ccc(F)cc4)c(Nc4ccc(F)cc4)nc32)cc1`, the MIC in the experiment on Aspergillus niger stood at 0.5 µg/mL (≈ 1.01 µM); against Candida albicans it was 0.4 µg/mL (≈ 0.809 µM); in the experiment with Aspergillus clavatus it was 0.4 µg/mL (≈ 0.809 µM).

With `Cc1ccc(Nc2nc3c(sc(=S)n3-c3ccccc3)c(=O)n2-c2ccc(C)cc2)cc1`, the results for the MIC with Aspergillus niger, against Candida albicans and with Aspergillus clavatus were 12.8 µg/mL (≈ 28 µM), 0.8 µg/mL (≈ 1.75 µM) and 0.8 µg/mL (≈ 1.75 µM), respectively.

Turning to `COc1ccc(Nc2nc3c(sc(=S)n3-c3ccc(Cl)c(Cl)c3)c(=O)n2-c2ccc(OC)cc2)cc1`, the minimal inhibitory concentration (MIC) worked out at 4 µg/mL (≈ 7.18 µM) with Aspergillus niger, 0.8 µg/mL (≈ 1.44 µM) against Candida albicans and 0.8 µg/mL (≈ 1.44 µM) against Aspergillus clavatus.

On to `O=c1c2sc(=S)n(-c3ccccc3)c2nc(Nc2ccccc2)n1-c1ccccc1`, for which the values for the MIC in the experiment on Aspergillus niger, with Candida albicans and in the experiment on Aspergillus clavatus were 25.6 µg/mL (≈ 59.7 µM), 4 µg/mL (≈ 9.33 µM) and 25.6 µg/mL (≈ 59.7 µM), respectively.

The values are drawn from ChEMBL document CHEMBL3046954, “Identification of important structural features of thiazolo[4,5-d]pyrimidines required for potent antifungal activity” (2011).
